Reference: US20070254882A1, “Sulfamide Derivatives and Pharmaceutical Composition for Upregulation of Lipid Metabolism Comprising Same” (CRYSTAL GENOMICS, INC., priority 2004, published 2007)

Biological target: T1, human PPAR α (Homo sapiens, UniProt Q07869)
T1 construct: expressed in transfected cells; host or cells: HepG2 (ATCC HB-8065) or 293T cells (ATCC CRL-1573)
T1 sequence (Q07869 239-466 limits assumed): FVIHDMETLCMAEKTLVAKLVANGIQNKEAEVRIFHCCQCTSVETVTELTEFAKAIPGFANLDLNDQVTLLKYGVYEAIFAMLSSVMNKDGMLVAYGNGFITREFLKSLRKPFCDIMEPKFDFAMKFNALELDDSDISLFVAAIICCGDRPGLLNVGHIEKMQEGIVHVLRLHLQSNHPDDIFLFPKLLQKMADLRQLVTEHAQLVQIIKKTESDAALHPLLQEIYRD
Test: Exogeneous PPAR α agonist assay (GAL4 DNA binding domain/PPAR α ligand binding domain, luciferase) in 293T cells
Type: cell-based
Design: scale not given here
Conditions: 25 μM compound, 48 hours, luciferase activity increase relative to the control
Protocol: Step 1) Exogeneous PPAR α Agonist Assay
Cross-activation assay of the compounds of Examples 1 to 134 against human PPAR α was carried out using a DNA construct of PPAR α including its ligand binding domain and GAL4 DNA binding domain (Sher et al., Biochemistry 32, 5598-5604, 1993) to analyze whether any of the compounds binds to the ligand binding domain of PPAR α expressed by the construct to affect the PPAR α activity. When the GAL4 DNA binding domainm which is fused with PPAR α ligand binding domain, binds to UAS (upstream activation sequence) of firefly-luciferase, the luciferase is expressed. Therefore, the effect of each of the compounds of Examples on PPAR α activation can be evaluated by analyzing the activation of luciferase.
Specifically, 2×10^4 of HepG2 (ATCC HB-8065) or 293T cells (ATCC CRL-1573) were aliquotted into each well of a 96-well plate and cultured for overnight at 37° C. in a CO2 incubator (culture condition: DMEM, 10% FBS and 1% antibiotics).
The transformation of PPAR α DNA was traced as follows. First, a mixture of the following ingredients in amounts per well; Solution A (Promega) containing 50 ng of full length human PPAR α DNA, 50 ng of firefly-luciferase construct, 5 ng of Renilla-luciferase construct, 1.0 μl of PLUS™ reagent, and 8.3 μl of a serum-free medium containing no antibiotics; was prepared and kept at room temperature for 15 min. Solution B, which contained 0.5 μl of Lipofectamine™ reagent and 9.5 μl of serum-free medium without antibiotics per well, and Solution C, which contained 50 μl of serum-free medium per well), were prepared. Solutions A, B and C were mixed together to prepare lipofectamin-DNA complex, and the mixture was kept at room temperature for 15 min. Single layer of cells on each well of a 96-well plate were washed with serum-free DMEM, 70 μl of lipofectamine-DNA complex prepared above was added thereto, the plate was incubated at 37° C. in a 5% CO2 incubator for 3 hours to transform the cells, and […] of a diluted solution of each of the compounds of Examples 1 to 134 per well was added to each well to a final concentration 25 μM, and incubated at 37° C. in a CO2 incubator for 48 hours. Then, the medium was removed, 50 μl of passive lysis buffer (Promega) was added thereto, and the plate was shook at room temperature for 20 min to lysis cells. 40 μl of Luciferase Assay reagent of Dual Luciferase Kit […] per 20 μl of cell lysis buffer was added to the plate, followed by reacting at 20° C. for 8 seconds, and 40 μl of Stop & Glo reagent (Promega) as a stop solution was added thereto to quench the reaction. The luminescence intensities of F-luciferase and R-luciferase were measured with MicroLumat Plus (Berthord Technology).

Structure (SMILES)	Activity at 25 μM Step 1 293T cell
Cc1ccc(-c2nc(CCOc3ccc(CN(CC(=O)O)S(=O)(=O)N(C)C)cc3)c(C)o2)cc1 [Example 99, [N—(N,N-dimethylamino)sulfonyl-N-[4-[2-[2-(4-methylphenyl)-5-methyloxazol-4-yl]ethoxy]benzyl]amino]acetic acid]	2
Cc1oc(-c2cccs2)nc1CCOc1ccc(CN(CC(=O)O)S(=O)(=O)N(C)c2ccc(Cl)cc2)cc1 [Example 115, [N—[[N-methyl-N-(4-chlorophenyl)]amino]sulfonyl-N-[4-[2-[2-(thiophen-2-yl)-5-methyloxazol-4-yl]ethoxy]benzyl]amino]acetic acid]	2
Cc1ccc(-c2nc(COc3ccc(CN(CC(=O)O)S(=O)(=O)N(C)C)cc3)c(C)o2)cc1 [Example 39, [N—(N,N-dimethylamino)sulfonyl-N-[4-[[2-(4-methylphenyl)-5-methyloxazol-4-yl]methoxy]benzyl]amino]acetic acid]	2
Cc1oc(-c2ccccc2)nc1COc1cccc(CN(CC(=O)O)S(=O)(=O)N(C)C)c1 [Example 3, [N—[(N,N-dimethylamino)sulfonyl]-N-[3-[(2-phenyl-5-methyloxazol-4-yl)methoxy]benzyl]amino]acetic acid]	2
Cc1ccc(-c2nc(COc3cccc(CN(CC(=O)O)S(=O)(=O)N(C)c4ccccc4)c3)c(C)o2)cc1 [Example 15, [N—[(N-methyl-N-phenyl)amino]sulfonyl-N-[3-[[2-(4-methylphenyl)-5-methyloxazol-4-yl]methoxy]benzyl]amino]acetic acid]	2
Cc1ccc(-c2nc(COc3ccc(CN(CC(=O)O)S(=O)(=O)N(C)c4ccccc4)cc3)c(C)o2)cc1 [Example 46, [N—[(N-methyl-N-phenyl)amino]sulfonyl-N-[4-[[2-(4-methylphenyl)-5-methyloxazol-4-yl]methoxy]benzyl]amino]acetic acid]	2
Cc1oc(-c2ccc(C(F)(F)F)cc2)nc1CCOc1cccc(CN(CC(=O)O)S(=O)(=O)NC(C)(C)C)c1 [Example 66, [N—(N-t-butylamino)sulfonyl-N-[3-[2-[2-(4-trifluoromethylphenyl)-5-methyloxazol-4-yl]ethoxy]benzyl]amino]acetic acid]	1
Cc1ccc(-c2nc(CCOc3ccc(CN(CC(=O)O)S(=O)(=O)N(C)c4ccccc4)cc3)c(C)o2)cc1 [Example 106, [N—[(N-methyl-N-phenyl)amino]sulfonyl-N-[4-[2-[2-(4-methylphenyl)-5-methyloxazol-4-yl]ethoxy]benzyl]amino]acetic acid]	2
Cc1nc(-c2ccc(C(F)(F)F)cc2)oc1COc1cccc(CN(CC(=O)O)S(=O)(=O)N(C)C)c1 [Example 13, [N—(N,N-dimethylamino)sulfonyl-N-[3-[[2-(4-trifluoromethylphenyl)-4-methyloxazol-5-yl]methoxy]benzyl]amino]acetic acid]	2
Cc1oc(-c2ccccc2)nc1CCOc1cccc(CN(CC(=O)O)S(=O)(=O)N2CCCc3ccccc32)c1 [Example 94, [N-(1,2,3,4-tetrahydroquinolinyl)sulfonyl-N-[3-[2-(2-phenyl-5-methyloxazol-4-yl)ethoxy]benzyl]amino]acetic acid]	2
Cc1oc(-c2ccccc2)nc1COc1ccc(CN(CC(=O)O)S(=O)(=O)N(C)c2ccc(Cl)cc2)cc1 [Example 49, [N—[[N-methyl-N-(4-chlorophenyl)]amino]sulfonyl-N-[4-[(2-phenyl-5-methyloxazol-4-yl)methoxy]benzyl]amino]acetic acid]	3
Cc1ccc(-c2nc(COc3ccc(CN(CC(=O)O)S(=O)(=O)N4CCN(C)CC4)cc3)c(C)o2)cc1 [Example 43, [N-(4-methyl-1-piperazinyl)sulfonyl-N-[4-[[2-(4-methylphenyl)-5-methyloxazol-4-yl]methoxy]benzyl]amino]acetic acid]	2
Cc1oc(-c2ccc(C(F)(F)F)cc2)nc1COc1cccc(CN(CC(=O)O)S(=O)(=O)N2CCCC2)c1 [Example 25, [N-(pyrrolidinyl)sulfonyl-N-[3-[[2-(4-trifluoromethylphenyl)-5-methyloxazol-4-yl]methoxy]benzyl]amino]acetic acid]	2
Cc1oc(-c2ccc(C(F)(F)F)cc2)nc1CCOc1cccc(CN(CC(=O)O)S(=O)(=O)N2CCN(C)CC2)c1 [Example 89, [N-(4-methyl-1-piperazinyl)sulfonyl-N-[3-[2-[2-(4-trifluoromethylphenyl)-5-methyloxazol-4-yl]ethoxy]benzyl]amino]acetic acid]	1

Continued, values first:

Activity at 25 μM Step 1 293T cell	Structure (SMILES)
2	Cc1oc(-c2cccs2)nc1CCOc1ccc(CN(CC(=O)O)S(=O)(=O)N2CCc3ccccc32)cc1 [Example 119, [N-(indolinyl)sulfonyl-N-[4-[2-[2-(thiophen-2-yl)-5-methyloxazol-4-yl]ethoxy]benzyl]amino]acetic acid]
2	Cc1oc(-c2ccc(C(F)(F)F)cc2)nc1COc1ccc(CN(CC(=O)O)S(=O)(=O)N2CCc3ccccc32)cc1 [Example 55, [N-(indolinyl)sulfonyl-N-[4-[[2-(4-trifluoromethylphenyl)-5-methyloxazol-4-yl]methoxy]benzyl]amino]acetic acid]
2	Cc1oc(-c2ccc(C(F)(F)F)cc2)nc1CCOc1ccc(CN(CC(=O)O)S(=O)(=O)N2CCc3ccccc32)cc1 [Example 118, [N-(indolinyl)sulfonyl-N-[4-[2-[2-(4-trifluoromethylphenyl)-5-methyloxazol-4-yl]ethoxy]benzyl]amino]acetic acid]
2	Cc1ccc(-c2nc(CCOc3ccc(CN(CC(=O)O)S(=O)(=O)N4CCCc5ccccc54)cc3)c(C)o2)cc1 [Example 121, [N-(1,2,3,4-tetrahydroquinolinyl)sulfonyl-N-[4-[2-[2-(4-methylphenyl)-5-methyloxazol-4-yl]ethoxy]benzyl]amino]acetic acid]
4	Cc1ccc(-c2nc(COc3ccc(CN(CC(=O)O)S(=O)(=O)N4CCCc5ccccc54)cc3)c(C)o2)cc1 [Example 58, [N-(1,2,3,4-tetraquinolinyl)sulfonyl-N-[4-[[2-(4-methylphenyl)-5-methyloxazol-4-yl]methoxy]benzyl]amino]acetic acid]
2	Cc1oc(-c2ccccc2)nc1COc1cccc(CN(CC(=O)O)S(=O)(=O)N2CCc3ccccc32)c1 [Example 30, [N-(indolinyl)sulfonyl-N-[3-[(2-phenyl-5-methyloxazol-4-yl)methoxy]benzyl]amino]acetic acid]
3	Cc1ccc(-c2nc(CCOc3ccc(CN(CC(=O)O)S(=O)(=O)N4CCc5ccccc54)cc3)c(C)o2)cc1 [Example 117, [N-(indolinyl)sulfonyl-N-[4-[2-[2-(4-methylphenyl)-5-methyloxazol-4-yl]ethoxy]benzyl]amino]acetic acid]
2	Cc1oc(-c2ccc(C(F)(F)F)cc2)nc1COc1ccc(CN(CC(=O)O)S(=O)(=O)N(C)C)cc1 [Example 40, [N—(N,N-dimethylamino)sulfonyl-N-[4-[[2-(4-trifluoromethylphenyl)-5-methyloxazol-4-yl]methoxy]benzyl]amino]acetic acid]
2	Cc1ccc(-c2nc(COc3cccc(CN(CC(=O)O)S(=O)(=O)N4CCCc5ccccc54)c3)c(C)o2)cc1 [Example 35, [N-(1,2,3,4-tetrahydroquinolinyl)sulfonyl-N-[3-[[2-(4-methylphenyl)-5-methyloxazol-4-yl]methoxy]benzyl]amino]acetic acid]
